Values belong to the compound of their own block, whether it stands above or below them.
Tests used:
[1] = popPK model-informed VAMS-to-serum conversion model (self-sampled capillary blood); assay type: in vivo, human; settings: for Ind Kbp: MAP estimate from at least one paired sample; for Ind CL/F / Ind Q/F / Ind V1/F: at-home VAMS
Protocol: In addition to serum sampling, patients were asked to participate in the sampling of capillary blood in the clinic and at home. Micro-sampling was not obligatory for enrollment in the study. Micro-sampling was performed from a finger by drawing 20 µL of capillary blood onto the VAMS device MITRA® purchased from Neoteryx (Torrance, CA, USA). During outpatient visits, micro-sampling was conducted by medical staff in parallel to serum sampling. A maximum of six corresponding serum/VAMS samples were collected per patient. Additionally, patients were asked to perform at-home sampling after being instructed by trained staff. For each at-home sampling occasion, patients received a set including four VAMS devices. Patients were instructed to perform sampling at four different time points during the following four time slots: 9 a.m.–12 p.m., 12–3 p.m., 3–6 p.m., and 6–9 p.m. […] Samples collected during different time slots were still accepted. The time of last drug administration and sampling times were self-documented on a specific form. No special storage conditions were specified, and patients were asked to keep samples at ambient temperature until shipment. Samples were sent to the laboratory in an airtight and opaque bag containing desiccant for analysis. At-home samples were collected at up to four occasions per patient. Hematocrit was documented from the results of routine blood withdrawal for VAMS samples collected during outpatient visits. For at-home samples, the last known hematocrit was used. […]
The conversion was based on a hematocrit-dependent formula (Figure 1). […] As proposed by Iacuzzi et al., the blood cell to plasma partition coefficient (Kbp) and intraindividual variability (IIV) were included in the conversion model and estimated from the consolidated data (Figure 1). For this purpose and to evaluate the conversion models, all the serum (Supplementary Table S1) and VAMS concentrations (collected at home or in the clinic) (Supplementary Table S2) were consolidated in a single dataset and fitted to the combined model using the EBE in Monolix 2021R1 (Lixoft SAS, Antony, France). Incorrectly sampled VAMS were removed from the dataset. The resulting individual predicted VAMS concentrations were compared with the observed VAMS concentrations. […] For trametinib, at least one paired sample per patient was included to generate the individual estimate for Kbp. A visual predictive check was performed to evaluate the predictive performance of the method.
Figure 1 Development of the population pharmacokinetic (popPK) model-informed VAMS-to-serum conversion model. PopPK models by Balakirouchenane et al. were used to generate serum maximum a posteriori (MAP) estimates from volumetric absorptive micro-sampling (VAMS) for dabrafenib (A) and trametinib (B).

[2] = Logistic regression of dose reduction/discontinuation vs predicted exposure; assay type: in vivo, human; settings: for relationship between dose reduction or discontinuation due to AE and predicted serum trough concentrations or AUCτ: logistic regression, standard dosing assumed
Protocol: Data were collected and processed using Microsoft Excel 2016 Version 16.0 (Microsoft Corporation, Redmond, WA, USA). Statistical calculations and visualization of results were performed with R Studio Version 1.2.5042 (RStudio Incorporation, Boston, MA, USA) running R version 4.0.5 (R Foundation for Statistical Computing, Vienna, Austria, 2020). For further analysis, serum concentrations were divided into groups according to time interval post-dose as follows: 0–5 h, 5–10 h, 10–14 h, and >14 h for (hydroxy-)dabrafenib and 0–10 h, 10–20 h, 20–30 h, and >30 h for trametinib. Concentrations < LLOQ were excluded from further statistical analyses. The concentrations of the same patient at the same dosage and within the same post-dose group were summarized into an individual mean serum concentration for descriptive statistical analysis to account for potential bias caused by the unbalanced number of samples per patient. […] The Wilcoxon […] test was used for unpaired samples. The correlations between individual PK parameters sampled from the conditional distribution during the generation of EBE (methods for estimation see below) and age, sex, body mass index (BMI), and co-medication were analyzed using analysis of variance (ANOVA) and Spearman’s correlation coefficient. Logistic regression was used to compare the risk of treatment discontinuations or dose reductions (dabrafenib dose reduction or discontinuation, trametinib dose reduction or discontinuation, or any dose reduction or discontinuation) with the corresponding predicted trough concentrations and area under the curve of a dosing interval (AUCτ) of dabrafenib, hydroxy-dabrafenib, and trametinib as well as with the composite predicted dabrafenib/hydroxy-dabrafenib trough concentration and with composite dabrafenib/hydroxy-dabrafenib AUCτ assuming standard dosing. The Hosmer–Lemeshow test was used to evaluate the goodness of fit for our logistic regression model. Due to the explorative nature of the study, p-values obtained from multiple comparisons were not corrected for multiple testing. A p-value < 0.05 was considered statistically significant.

[3] = parameters: method as in PMID 32283865; settings: popPK model population value; cited from earlier work
[4] = MAP estimate, patient DT002, 2 mg/24 h
[5] = MAP estimate, patient DT010, 2 mg/24 h
[6] = MAP estimate, patient DT014, 2 mg/24 h
[7] = MAP estimate, patient DT018, 1 mg/24 h
[8] = MAP estimate, patient DT019, 1.5 mg/24 h
[9] = MAP estimate, patient DT026, 2 mg/24 h
[10] = MAP estimate, patient DT027, 2 mg/24 h

Ind Kbp ([1]; patient DT002): 4.84 | Ind Kbp ([1]; patient DT010): 4.98 | Ind Kbp ([1]; patient DT014): 5.36 | Ind Kbp ([1]; patient DT018): 3.89 | Ind Kbp ([1]; patient DT019): 3.91 | Ind Kbp ([1]; patient DT026): 4.38 | Ind Kbp ([1]; patient DT027): 4.41 | Ind CL/F [1, 4]: 6.07 L/h | Ind Q/F [1, 4]: 97.65 L/h | Ind CL/F [1, 5]: 6.63 L/h | Ind Q/F [1, 5]: 125.55 L/h | Ind CL/F [1, 6]: 8.36 L/h | Ind Q/F [1, 6]: 129.17 L/h | Ind CL/F [1, 7]: 3.52 L/h | Ind Q/F [1, 7]: 185.04 L/h | Ind CL/F [1, 8]: 3.79 L/h | Ind Q/F [1, 8]: 77.82 L/h | Ind CL/F [1, 9]: 6.25 L/h | Ind Q/F [1, 9]: 106.5 L/h | Ind CL/F [1, 10]: 6.95 L/h | Ind Q/F [1, 10]: 65.04 L/h | population value for Kbp (blood cell to plasma partition coefficient) ([1]; estimated from combined serum and VAMS dataset): 4.62 | IIV of ωKbp ([1]; extended trametinib model): 0.31 | effect of Cmin on probability of dose reduction or treatment discontinuation (logistic regression) ([2]; predicted trough concentration as exposure surrogate, intercept -0.349, p-value 0.0798): 0.06178
SMILES: CC(=O)Nc1cccc(-n2c(=O)n(C3CC3)c(=O)c3c(Nc4ccc(I)cc4F)n(C)c(=O)c(C)c32)c1 [trametinib]
relationship between dose reduction or discontinuation due to AE and predicted serum trough concentrations or AUCτ [2]: no significant relationships | CENT (central compartment) volume [3]: 61.9 L | CL/F (oral clearance from central compartment) [3]: 5.83 L/h | PER (peripheral compartment) volume [3]: 417 L | Tlag (lag time before beginning of absorption process) [3]: 0.709 h | ka (absorption rate constant) [3]: 0.913 h⁻¹

Ind V1/F ([1]; MAP estimate, patient DT002, 150 mg/12 h): 30.8 L | Ind V1/F ([1]; MAP estimate, patient DT005, 150 mg/12 h): 24.7 L | Ind V1/F ([1]; MAP estimate, patient DT010, 150 mg/12 h): 14.3 L | Ind V1/F ([1]; MAP estimate, patient DT014, 150 mg/12 h): 30.2 L | Ind V1/F ([1]; MAP estimate, patient DT018, 150 mg/12 h): 82.5 L | Ind V1/F ([1]; MAP estimate, patient DT019, 150 mg/12 h): 39.5 L | Ind V1/F ([1]; MAP estimate, patient DT026, 100 mg/12 h): 40.3 L | Ind V1/F ([1]; MAP estimate, patient DT027, 150 mg/12 h): 71.5 L | Ind CL/F ([1]; patient DT002, occasion 1, 150 mg/12 h): 13.5 L/h | Ind CL/F ([1]; patient DT002, occasion 2, 150 mg/12 h): 17.2 L/h | Ind CL/F ([1]; patient DT002, occasion 3, 150 mg/12 h): 21.1 L/h | Ind CL/F ([1]; patient DT005, occasion 1, 150 mg/12 h): 20.7 L/h | Ind CL/F ([1]; patient DT010, occasion 1, 150 mg/12 h): 18.5 L/h | Ind CL/F ([1]; patient DT010, occasion 2, 150 mg/12 h): 33.3 L/h | Ind CL/F ([1]; patient DT010, occasion 3, 150 mg/12 h): 12.1 L/h | Ind CL/F ([1]; patient DT014, occasion 1, 150 mg/12 h): 30.1 L/h | Ind CL/F ([1]; patient DT018, occasion 1, 150 mg/12 h): 24.7 L/h | Ind CL/F ([1]; patient DT018, occasion 2, 150 mg/12 h): 14.9 L/h | Ind CL/F ([1]; patient DT018, occasion 3, 150 mg/12 h): 37.5 L/h | Ind CL/F ([1]; patient DT018, occasion 4, 150 mg/12 h): 32.3 L/h | Ind CL/F ([1]; patient DT019, occasion 1, 150 mg/12 h): 33.1 L/h | Ind CL/F ([1]; patient DT019, occasion 2, 150 mg/12 h): 15.8 L/h | Ind CL/F ([1]; patient DT019, occasion 3, 150 mg/12 h): 9.8 L/h | Ind CL/F ([1]; patient DT019, occasion 4, 150 mg/12 h): 24.2 L/h | Ind CL/F ([1]; patient DT026, occasion 1, 100 mg/12 h): 33.3 L/h | Ind CL/F ([1]; patient DT026, occasion 2, 100 mg/12 h): 41.1 L/h | Ind CL/F ([1]; patient DT026, occasion 3, 100 mg/12 h): 38.7 L/h | Ind CL/F ([1]; patient DT027, occasion 1, 150 mg/12 h): 28.6 L/h | Ind CL/F ([1]; patient DT027, occasion 2, 150 mg/12 h): 23.2 L/h | Ind CL/F ([1]; patient DT027, occasion 3, 150 mg/12 h): 36.5 L/h
SMILES: CC(C)(C)c1nc(-c2cccc(NS(=O)(=O)c3c(F)cccc3F)c2F)c(-c2ccnc(N)n2)s1 [dabrafenib]
relationship between dose reduction or discontinuation due to AE and predicted serum trough concentrations or AUCτ [2]: no significant relationships | CENT (central compartment) volume [3]: 39.5 L | CL/F (oral clearance from central compartment) [3]: 17.7 L/h | PER (peripheral compartment) volume [3]: 19.6 L | Tlag (lag time before beginning of absorption process) [3]: 0.5 h | ka (absorption rate constant) [3]: 1.8 h⁻¹

Reference: publication PMC9558510 (Cancers, 2022)
